Data on three compounds can be found in patent US20210322508A1, “PEPTIDES AND COMPOSITIONS FOR TARGETED TREATMENT AND IMAGING” (SIGNABLOK, INC., priority 2018, published 2021).

Residues, ends and D or L forms follow the SMILES beside them.

The nature of data set [1]: comparison of therapies (cancer indications). The conditions noted are these: shown for cancer indications.
Data set [2] deals with intratumoral macrophages (F4/80). Kind of data set: Immunohistochemistry of intratumoral macrophages (F4/80) in PC xenografts. It is filed as in vivo, mouse. The conditions noted are these: PC xenografts (shown for BxPC-3). As to the method: All staining and quantification procedures were performed by HistoTox Laboratories. Briefly, mice containing AsPC-1, BxPC-3, and Capan-1 tumors were humanely euthanized for necropsy at the end of the study. Excised tumors were fixed using 10% neutral buffered formalin for 1-2 days, processed for paraffin embedding, and sectioned at […]. Antigen retrieval for F4/80 was achieved using Proteinase K (Dako North America). Sections were blocked for peroxidase and alkaline phosphatase activity using Dual Endogenous Enzyme Block (Dako North America). Sections were then incubated with Protein Block (Dako North America) followed by primary antibody F4/80 (1:2000, AbD Serotec) diluted using 1% bovine serum albumin in Tris-buffered saline. […] Quantitative analysis of intratumoral F4/80 staining was determined using Visiopharm software.
Mice containing BxPC-3 tumors were humanely euthanized for necropsy at the end of the study. […] Quantitative analysis of intratumoral F4/80 staining was determined using Visiopharm software.
Immunohistochemistry. All staining and quantification procedures were performed by HistoTox Labs. […] Quantitative analysis of intratumoral F4/80 staining was determined using Visiopharm software.

For data set [3], the system named is human pancreatic cancer PANC-1 xenograft. Kind of data set: PANC-1 xenograft mouse model, standalone and with GEM+ABX chemotherapy. It is filed as in vivo. Here is the method: Mice were implanted subcutaneously into the right flank with PANC-1 cells in equal parts of serum-free growth medium and Matrigel. Mice were monitored daily and tumor measurements were taken along the length and width using Vernier calipers twice weekly until sacrifice. Tumor volumes were calculated using a modified ellipsoidal formula: (Length×Width^2)/2. […] Body weight were measured. Mean tumor volumes were calculated. […] Survival was evaluated using Kaplan-Meier survival curves.

Regarding `CC(C)C[C@H](NC(=O)[C@H](Cc1ccccc1)NC(=O)CN)C(=O)N[C@@H](CO)C(=O)N[C@@H](CCCCN)C(=O)N[C@@H](CO)C(=O)N[C@@H](CC(C)C)C(=O)N[C@H](C(=O)N[C@@H](Cc1ccccc1)C(=O)O)C(C)C` [GF9] (H-GFLSKSLVF-OH), the Acute toxicity result in data set [1] is on record as “LOW”. As for `CC(C)C[C@H](NC(=O)[C@H](Cc1ccccc1)NC(=O)CN)C(=O)N[C@@H](CO)C(=O)N[C@@H](CCCCN)C(=O)N[C@@H](CO)C(=O)N[C@@H](CC(C)C)C(=O)N[C@H](C(=O)N[C@@H](Cc1ccccc1)C(=O)NCC(=O)N[C@@H](CCC(=O)O)C(=O)N[C@@H](CCC(=O)O)C(=O)N[C@@H](CC[S+](C)[O-])C(=O)N[C@@H](CCCNC(=N)N)C(=O)N[C@@H](CC(=O)O)C(=O)N[C@@H](CCCNC(=N)N)C(=O)N[C@@H](C)C(=O)N[C@@H](CCCNC(=N)N)C(=O)N[C@@H](C)C(=O)N[C@@H](Cc1c[nH]cn1)C(=O)N[C@H](C(=O)O)C(C)C)C(C)C` (stereo partly shown) [G-HV21] (HELM PEPTIDE1{G.F.L.S.K.S.L.V.F.G.E.E.[CS(=O)CC[C@H](N[*:1])C(=O)[*:2]].R.D.R.A.R.A.H.V}$$$$V2.0), the “intratumoral macrophage content / infiltration (F4/80)” value in data set [2] was “reduces the macrophage infiltration into the tumor”. `CC(C)C[C@H](NC(=O)[C@H](Cc1ccccc1)NC(=O)CN)C(=O)N[C@@H](CO)C(=O)N[C@@H](CCCCN)C(=O)N[C@@H](CO)C(=O)N[C@@H](CC(C)C)C(=O)N[C@H](C(=O)N[C@@H](Cc1ccccc1)C(=O)N[C@@H](Cc1c[nH]c2ccccc12)C(=O)N[C@@H](CCC(N)=O)C(=O)N[C@@H](CCC(=O)O)C(=O)N[C@@H](CCC(=O)O)C(=O)N[C@@H](CC[S+](C)[O-])C(=O)N[C@@H](CCC(=O)O)C(=O)N[C@@H](CC(C)C)C(=O)N[C@@H](Cc1ccc(O)cc1)C(=O)N[C@@H](CCCNC(=N)N)C(=O)N[C@@H](CCC(N)=O)C(=O)N[C@@H](CCCCN)C(=O)N[C@H](C(=O)O)C(C)C)C(C)C` (stereo partly shown) [G-KV21] (HELM PEPTIDE1{G.F.L.S.K.S.L.V.F.W.Q.E.E.[CS(=O)CC[C@H](N[*:1])C(=O)[*:2]].E.L.Y.R.Q.K.V}$$$$V2.0): the “survival, combined with GEM+ABX chemotherapy” value in data set [3] is reported as “significantly improves survival”. In data set [3] (GEM+ABX days 1, 4, 8, 11, 15), the “tumor growth, combined with GEM+ABX chemotherapy” value was “sensitizes the tumor to chemotherapy”.
